{"source": "the supplement of paper PMC10307832", "assay_in_all_cases": "relative viability (nuclei count vs DMSO), 5 days (fraction); higher = more cells survive", "key": {"[1]": {"compound": "CC1(COc2ccc3c(c2)ncn3-c2ccc3cccc(N4CCC(N)CC4)c3n2)COC1 [Crenolanib] + CC(=O)c1c(C)c2cnc(Nc3ccc(N4CCNCC4)cn3)nc2n(C2CCCC2)c1=O [Palbociclib] (partner 0.5 µM)", "how_it_was_run": "(§1)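 Lung cancer cell lines were seeded in 1536-well plates and dosed by pin tool the next day, with either a single drug or a fixed anchor-drug dose combined with five library-drug doses (not always all listed) spaced in √10 steps. Five days later, one step fixed the cells and stained their nuclei (final 0.05% Triton X-100, 1% formaldehyde, 1 ug/ml Hoechst), and nuclei were counted on 4× images. Relative viability is the nuclei count in treated wells divided by the count in vehicle wells, and each value is the median of duplicate plates.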"}, "[2]": {"compound": "CC1(COc2ccc3c(c2)ncn3-c2ccc3cccc(N4CCC(N)CC4)c3n2)COC1 [Crenolanib] + CC1(C)CCC(c2ccc(Cl)cc2)=C(CN2CCN(c3ccc(C(=O)NS(=O)(=O)c4ccc(N[C@H](CCN5CCOCC5)CSc5ccccc5)c(S(=O)(=O)C(F)(F)F)c4)cc3)CC2)C1 [Navitoclax] (partner 0.5 µM)", "how_it_was_run": "as §1"}, "[3]": {"compound": "CC1(COc2ccc3c(c2)ncn3-c2ccc3cccc(N4CCC(N)CC4)c3n2)COC1 [Crenolanib] + C[C@]1(O)C[C@@H](c2nc(-c3ccc4ccc(-c5ccccc5)nc4c3)c3c(N)nccn32)C1 [Linsitinib] (partner 1 µM)", "how_it_was_run": "as §1"}, "[4]": {"compound": "CC1(COc2ccc3c(c2)ncn3-c2ccc3cccc(N4CCC(N)CC4)c3n2)COC1 [Crenolanib] + O=C(c1cc(Cc2n[nH]c(=O)c3ccccc23)ccc1F)N1CCN(C(=O)C2CC2)CC1 [Olaparib] (partner 8 µM)", "how_it_was_run": "as §1"}}, "data": [{"cell line": "UMC-11", "values": [{"measurement": "relative viability", "setting": "[1]; first compound 0.01 µM", "result": 0.391}, {"measurement": "relative viability", "setting": "[1]; first compound 0.03162 µM", "result": 0.334}, {"measurement": "relative viability", "setting": "[1]; first compound 0.1 µM", "result": 0.349}, {"measurement": "relative viability", "setting": "[1]; first compound 0.3162 µM", "result": 0.286}, {"measurement": "relative viability", "setting": "[1]; first compound 1 µM", "result": 0.352}, {"measurement": "relative viability", "setting": "[2]; first compound 0.01 µM", "result": 0.333}, {"measurement": "relative viability", "setting": "[2]; first compound 0.03162 µM", "result": 0.331}, {"measurement": "relative viability", "setting": "[2]; first compound 0.1 µM", "result": 0.301}, {"measurement": "relative viability", "setting": "[2]; first compound 0.3162 µM", "result": 0.341}, {"measurement": "relative viability", "setting": "[2]; first compound 1 µM", "result": 0.31}, {"measurement": "relative viability", "setting": "[3]; first compound 0.01 µM", "result": 1.01}, {"measurement": "relative viability", "setting": "[3]; first compound 0.03162 µM", "result": 0.997}, {"measurement": "relative viability", "setting": "[3]; first compound 0.1 µM", "result": 0.978}, {"measurement": "relative viability", "setting": "[3]; first compound 0.3162 µM", "result": 1.14}, {"measurement": "relative viability", "setting": "[3]; first compound 1 µM", "result": 0.952}, {"measurement": "relative viability", "setting": "[4]; first compound 0.01 µM", "result": 0.394}, {"measurement": "relative viability", "setting": "[4]; first compound 0.03162 µM", "result": 0.35}, {"measurement": "relative viability", "setting": "[4]; first compound 0.1 µM", "result": 0.379}, {"measurement": "relative viability", "setting": "[4]; first compound 0.3162 µM", "result": 0.556}, {"measurement": "relative viability", "setting": "[4]; first compound 1 µM", "result": 0.341}]}]}
